The results in this text go back to ChEMBL document CHEMBL1151031, “Lipophilic bis-arylsulfonates as inhibitors of the CD4-gp120 interaction” (Bioorg Med Chem Lett, 1996).

Bounds are passed on as bounds.

Experiment [1] in a line: Inhibition of HIV gp120 binding to CD4 receptor using ELISA assay. On the set-up: species or system Human immunodeficiency virus 1. (ELISA stands for enzyme-linked immunosorbent assay.)
The test system of experiment [2] is CCRF-CEM. The experiment in a line: Compound was evaluated for the cytotoxicity against CEM cells. The format is functional. To be noted: Homo sapiens, read-out: CD50 (the source's name).
Experiment [3] is described as follows: Inhibition of gp120 binding to CEM cells in vitro. The format is functional, cell-based. The following applies: ccrf-cem.
Experiment [4] has as its system CCRF-CEM. Briefly: Compound was evaluated for the inhibition of gp120 binding to monoclonal antibodies in CEM cells; Flat dose response. The format is functional, cell-based, Homo sapiens.

A word on the IC50: it is the midpoint of a concentration-inhibition curve.

With `CCCCCCCCCCCCCCCCC=C(c1cccc2cc(S(=O)(=O)O)ccc12)c1cccc2cc(S(=O)(=O)O)ccc12`, in experiment [1], the concentration for half-maximal inhibition (IC50) was 192 µM.
`CCCCC/C=C/C/C=C/CCCCCCC=C(c1cccc2cc(S(=O)(=O)O)ccc12)c1cccc2cc(S(=O)(=O)O)ccc12`: the IC50 in experiment [1] amounted to 56 µM.
Consider `CC(C)CCCC(C)[C@H]1CC[C@H]2[C@@H]3CCC4CC(C=C(c5ccc(S(=O)(=O)O)cc5)c5ccc(S(=O)(=O)O)cc5)CC[C@]4(C)[C@H]3CC[C@]12C` (some centres undefined), for which the IC50 in experiment [1] stood at 10 µM; in experiment [3], 39 µM. Besides, the CC50 with CCRF-CEM [2] was 56 µM.
On to `CC(C)CCCC(C)[C@H]1CC[C@H]2[C@@H]3CCC4CC(C=C(c5cccc6cc(S(=O)(=O)O)ccc56)c5cccc6cc(S(=O)(=O)O)ccc56)CC[C@]4(C)[C@H]3CC[C@]12C` (some centres undefined), for which the figures for the 50% inhibitory concentration (IC50) in experiment [1] and in experiment [3] were 16 µM and 6 µM, respectively.
Turning to `CC(C)CCCC(C)[C@H]1CC[C@H]2[C@@H]3CCC4C[C@@H](CCC=C(c5cc(Cl)c(O)c(C(=O)O)c5)c5cc(Cl)c(O)c(C(=O)O)c5)CC[C@]4(C)[C@H]3CC[C@]12C` (some centres undefined), the half-inhibitory concentration (IC50) in experiment [1] worked out at 18 µM; in experiment [3], 5 µM.
Regarding `C[C@@]12CCC[C@H]1[C@@H]1CCC3CC(C=C(c4cccc5cc(S(=O)(=O)O)ccc45)c4cccc5cc(S(=O)(=O)O)ccc45)CC[C@]3(C)[C@H]1CC2` (some centres undefined), the half-maximal inhibitory concentration (IC50) worked out at 26 µM in experiment [1] and 17 µM in experiment [3].
As for `CC(C)CCCC(C)[C@H]1CC[C@H]2[C@@H]3CCC4CC(CCC=C(c5cccc6ccc(S(=O)(=O)O)cc56)c5cccc6ccc(S(=O)(=O)O)cc56)CC[C@]4(C)[C@H]3CC[C@]12C` (some centres undefined), the 50% inhibitory concentration (IC50) in experiment [1] came out at 10 µM; in experiment [3] it was 7 µM. The CC50 in the experiment with CCRF-CEM [2] was 120 µM.
Take `CC(C)CCCC(C)[C@H]1CC[C@H]2[C@@H]3CCC4CC(CCC=C(c5cccc6cc(S(=O)(=O)O)ccc56)c5cccc6cc(S(=O)(=O)O)ccc56)CC[C@]4(C)[C@H]3CC[C@]12C` (stereo in doubt; 1401): the half-inhibitory concentration (IC50) worked out at 9 µM in experiment [1] and 7 µM in experiment [3].
Turning to `CC(C)CCCC(C)[C@H]1CC[C@H]2[C@@H]3CCC4CC(CCC=C(c5ccc(S(=O)(=O)O)cc5)c5ccc(S(=O)(=O)O)cc5)CC[C@]4(C)[C@H]3CC[C@]12C` (some centres undefined), the half-inhibitory concentration (IC50) in experiment [1] was found to be 13 µM; in experiment [3] it was 47 µM. Moreover, the CC50 with CCRF-CEM [2] worked out at 135 µM.
Consider `CCCCCCCC1(C)CCc2c(C)c(OCCC=C(c3cccc4cc(S(=O)(=O)O)ccc34)c3cccc4cc(S(=O)(=O)O)ccc34)c(C)c(C)c2O1` (centres undefined), for which the IC50 in experiment [1] came out at 41 µM; in experiment [3], 23 µM.
`CC(C)CCCC(C)[C@H]1CC[C@H]2[C@@H]3CC[C@@H]4CC(C=C(c5cccc6cc(S(=O)(=O)O)ccc56)c5cccc6cc(S(=O)(=O)O)ccc56)CC[C@]4(C)[C@H]3CC[C@]12C` (some centres undefined): the IC50 in experiment [1] turned out to be 26 µM; in experiment [3], 13 µM.
Consider `CC(C)CCCC(C)[C@H]1CC[C@H]2[C@@H]3CCC4CC(CCC=C(c5cccc6cc(S(=O)(=O)O)ccc56)c5cccc6cc(S(=O)(=O)O)ccc56)CC[C@]4(C)[C@H]3CC[C@]12C` (stereo in doubt), for which the IC50 in experiment [1] amounted to 18 µM; in experiment [3], 9 µM.
As for `O=S(=O)(O)c1ccc2c(C(=CCCc3ccc4ccccc4c3)c3cccc4cc(S(=O)(=O)O)ccc34)cccc2c1`, the concentration for half-maximal inhibition (IC50) was greater than 350 µM in experiment [1] and greater than 170 µM in experiment [3].
For `CC(C)CCCC(C)[C@H]1CC[C@H]2[C@@H]3CCC4CC(OCCC=C(c5cccc6cc(S(=O)(=O)O)ccc56)c5cccc6cc(S(=O)(=O)O)ccc56)CC[C@]4(C)[C@H]3CC[C@]12C` (some centres undefined) the same measures were 31 µM and 6 µM.
Take `C[C@]12CC[C@H]3[C@@H](CCC4CC(C=C(c5cccc6cc(S(=O)(=O)O)ccc56)c5cccc6cc(S(=O)(=O)O)ccc56)CC[C@@]43C)[C@@H]1CC[C@@H]2O` (some centres undefined): the IC50 in experiment [1] is 83 µM; in experiment [3], 24 µM.
With `CCCCCCCCCCCCCCCCC1(C)CCc2c(C)c(OCCC=C(c3cccc4cc(S(=O)(=O)O)ccc34)c3cccc4cc(S(=O)(=O)O)ccc34)c(C)c(C)c2O1` (centres undefined), the half-inhibitory concentration (IC50) in experiment [1] was 25 µM; in experiment [3], 5 µM.
For the molecule `CC(C)CCCC(C)[C@H]1CC[C@H]2[C@@H]3CCC4CC(C=C(c5cccc(S(=O)(=O)O)c5)c5cccc(S(=O)(=O)O)c5)CC[C@]4(C)[C@H]3CC[C@]12C` (some centres undefined), the IC50 in experiment [1] is 62 µM; in the experiment on CCRF-CEM [4] it was “Flat dose response”.
Take `O=S(=O)(O)c1ccc2c(C(=CC3CCCCCCCCC3)c3cccc4cc(S(=O)(=O)O)ccc34)cccc2c1`: the half-maximal inhibitory concentration (IC50) was greater than 400 µM in experiment [1] and 150 µM in experiment [3].
Turning to `O=S(=O)(O)c1ccc2c(C(=CC3CCCCCCCCCCCCCC3)c3cccc4cc(S(=O)(=O)O)ccc34)cccc2c1`, the IC50 stood at 130 µM in experiment [1] and 52 µM in experiment [3].
For the molecule `C[C@]12CCC(C=C(c3cccc4cc(S(=O)(=O)O)ccc34)c3cccc4cc(S(=O)(=O)O)ccc34)CC1CC[C@@H]1[C@@H]2CC[C@]2(C)C(=O)CC[C@@H]12` (some centres undefined), the half-inhibitory concentration (IC50) in experiment [1] came to 107 µM; in experiment [3] it was 35 µM.
Regarding `O=S(=O)(O)c1ccc2c(C(=CCCc3ccc4c(c3)CCc3ccccc3-4)c3cccc4cc(S(=O)(=O)O)ccc34)cccc2c1`, the IC50 in experiment [1] stood at 292 µM; in experiment [3], 49 µM.
Consider `C=CCO[C@H]1CC[C@H]2[C@@H]3CCC4CC(C=C(c5cccc6cc(S(=O)(=O)O)ccc56)c5cccc6cc(S(=O)(=O)O)ccc56)CC[C@]4(C)[C@H]3CC[C@]12C` (some centres undefined), for which the IC50 was 33 µM in experiment [1] and 12 µM in experiment [3]. The CC50 in the experiment on CCRF-CEM [2] is 100 µM.
As to `CC(C)CCCC(C)[C@H]1CC[C@H]2[C@@H]3CCC4CC(C=C(c5cccc6ccc(S(=O)(=O)O)cc56)c5cccc6ccc(S(=O)(=O)O)cc56)CC[C@]4(C)[C@H]3CC[C@]12C` (some centres undefined), the IC50 in experiment [1] amounted to 10 µM; in experiment [3], 25 µM. Moreover, the CC50 in the experiment with CCRF-CEM [2] turned out to be 125 µM.
